Experimental data as given in patent US12479847B2 (DANA-FARBER CANCER INSTITUTE, INC., priority 2019, dated 2025).
Where two headings read alike, the source gives them in different places.

How the values were obtained:
Experiment in all cases: KINOMEscan (ScanMAX) kinase profiling
Format in all cases: binding
panel of 468 kinases [1] = molecular target: T1, panel of 468 kinases (Homo sapiens, UniProt P54760); conditions: EPHB4; 1 μM; read-out: % control
T1 construct: purchased KINOMEscan (ScanMAX) service
T1 sequence (P54760 16-987): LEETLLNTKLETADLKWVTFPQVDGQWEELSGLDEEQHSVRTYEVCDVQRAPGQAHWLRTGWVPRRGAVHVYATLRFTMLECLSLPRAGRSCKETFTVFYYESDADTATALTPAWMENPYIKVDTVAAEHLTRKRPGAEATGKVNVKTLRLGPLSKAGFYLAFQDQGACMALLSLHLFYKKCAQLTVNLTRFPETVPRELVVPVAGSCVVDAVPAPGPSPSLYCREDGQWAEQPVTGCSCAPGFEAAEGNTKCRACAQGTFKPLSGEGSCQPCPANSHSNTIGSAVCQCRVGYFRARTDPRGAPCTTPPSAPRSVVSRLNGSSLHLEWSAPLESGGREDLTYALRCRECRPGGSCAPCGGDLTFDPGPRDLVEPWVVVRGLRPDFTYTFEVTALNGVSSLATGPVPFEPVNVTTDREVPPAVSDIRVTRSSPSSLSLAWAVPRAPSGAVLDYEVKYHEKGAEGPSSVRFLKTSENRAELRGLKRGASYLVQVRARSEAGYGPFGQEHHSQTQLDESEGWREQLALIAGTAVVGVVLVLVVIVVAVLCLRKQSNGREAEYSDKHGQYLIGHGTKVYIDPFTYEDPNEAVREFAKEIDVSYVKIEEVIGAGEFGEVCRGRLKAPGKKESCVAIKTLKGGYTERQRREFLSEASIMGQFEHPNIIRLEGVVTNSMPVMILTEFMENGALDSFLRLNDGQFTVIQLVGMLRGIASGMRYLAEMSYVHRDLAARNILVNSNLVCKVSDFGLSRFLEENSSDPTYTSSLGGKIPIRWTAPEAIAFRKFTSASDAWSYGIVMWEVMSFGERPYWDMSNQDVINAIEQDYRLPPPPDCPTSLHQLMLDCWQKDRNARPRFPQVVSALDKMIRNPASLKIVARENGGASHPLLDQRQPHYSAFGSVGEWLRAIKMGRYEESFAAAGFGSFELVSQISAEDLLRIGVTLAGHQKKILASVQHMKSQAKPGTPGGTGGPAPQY

panel of 468 kinases [2] = molecular target: T2, panel of 468 kinases (Homo sapiens, UniProt P15056, V600E); conditions: BRAF(V600E); 1 μM; read-out: % control
T2 construct: purchased KINOMEscan (ScanMAX) service

panel of 468 kinases [3] = molecular target: T3, panel of 468 kinases (Homo sapiens, UniProt Q06418); conditions: TYRO3; 1 μM; read-out: % control
T3 construct: purchased KINOMEscan (ScanMAX) service
T3 sequence (Q06418 41-890): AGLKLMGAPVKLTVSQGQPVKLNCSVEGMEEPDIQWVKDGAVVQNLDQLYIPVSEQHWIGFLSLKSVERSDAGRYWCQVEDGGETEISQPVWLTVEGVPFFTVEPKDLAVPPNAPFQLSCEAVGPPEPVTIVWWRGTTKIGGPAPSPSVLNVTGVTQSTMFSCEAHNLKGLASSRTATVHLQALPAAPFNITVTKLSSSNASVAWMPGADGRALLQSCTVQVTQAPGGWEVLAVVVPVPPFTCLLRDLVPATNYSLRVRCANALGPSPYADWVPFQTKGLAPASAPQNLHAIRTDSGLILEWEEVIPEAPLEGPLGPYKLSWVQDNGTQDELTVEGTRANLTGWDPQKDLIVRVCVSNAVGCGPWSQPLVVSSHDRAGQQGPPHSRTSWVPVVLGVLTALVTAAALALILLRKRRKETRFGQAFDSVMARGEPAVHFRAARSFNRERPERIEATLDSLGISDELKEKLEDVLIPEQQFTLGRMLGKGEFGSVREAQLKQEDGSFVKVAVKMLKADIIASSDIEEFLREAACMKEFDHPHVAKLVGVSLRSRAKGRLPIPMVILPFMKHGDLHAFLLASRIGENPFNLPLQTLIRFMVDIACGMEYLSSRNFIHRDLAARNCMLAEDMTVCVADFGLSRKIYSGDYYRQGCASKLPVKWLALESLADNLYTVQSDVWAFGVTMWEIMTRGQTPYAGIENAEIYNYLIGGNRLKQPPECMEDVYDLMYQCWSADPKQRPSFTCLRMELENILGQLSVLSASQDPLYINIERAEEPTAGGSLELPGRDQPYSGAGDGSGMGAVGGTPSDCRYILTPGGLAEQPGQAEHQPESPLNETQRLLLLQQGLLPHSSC

panel of 468 kinases [4] = molecular target: T4, panel of 468 kinases (Homo sapiens, UniProt Q14012); conditions: CAMK1; 1 μM; read-out: % control
T4 construct: purchased KINOMEscan (ScanMAX) service

panel of 468 kinases [5] = molecular target: T5, panel of 468 kinases (Homo sapiens, UniProt P07947); conditions: YES; 1 μM; read-out: % control
T5 construct: purchased KINOMEscan (ScanMAX) service

panel of 468 kinases [6] = molecular target: T6, panel of 468 kinases (Homo sapiens, UniProt P00519, E255K); conditions: ABL1(E255K)-phosphorylated; 1 μM; read-out: % control
T6 construct: purchased KINOMEscan (ScanMAX) service

panel of 468 kinases [7] = molecular target: T7, panel of 468 kinases (Homo sapiens, UniProt P22607, G697C); conditions: FGFR3(G697C); 1 μM; read-out: % control
T7 construct: purchased KINOMEscan (ScanMAX) service

panel of 468 kinases [8] = molecular target: T8, panel of 468 kinases (Homo sapiens, UniProt Q9Y6M4); conditions: CSNK1G3; 1 μM; read-out: % control
T8 construct: purchased KINOMEscan (ScanMAX) service

panel of 468 kinases [9] = molecular target: T9, panel of 468 kinases (Homo sapiens, UniProt Q13177); conditions: PAK2; 1 μM; read-out: % control
T9 construct: purchased KINOMEscan (ScanMAX) service

panel of 468 kinases [10] = molecular target: T10, panel of 468 kinases (Homo sapiens, UniProt P23458); conditions: 1 μM, read-out: % control
T10 construct: purchased KINOMEscan (ScanMAX) service

panel of 468 kinases [11] = molecular target: T11, panel of 468 kinases (Homo sapiens, UniProt Q15418); conditions: 1 μM, read-out: % control
T11 construct: purchased KINOMEscan (ScanMAX) service
T11 sequence (Q15418 whole entry): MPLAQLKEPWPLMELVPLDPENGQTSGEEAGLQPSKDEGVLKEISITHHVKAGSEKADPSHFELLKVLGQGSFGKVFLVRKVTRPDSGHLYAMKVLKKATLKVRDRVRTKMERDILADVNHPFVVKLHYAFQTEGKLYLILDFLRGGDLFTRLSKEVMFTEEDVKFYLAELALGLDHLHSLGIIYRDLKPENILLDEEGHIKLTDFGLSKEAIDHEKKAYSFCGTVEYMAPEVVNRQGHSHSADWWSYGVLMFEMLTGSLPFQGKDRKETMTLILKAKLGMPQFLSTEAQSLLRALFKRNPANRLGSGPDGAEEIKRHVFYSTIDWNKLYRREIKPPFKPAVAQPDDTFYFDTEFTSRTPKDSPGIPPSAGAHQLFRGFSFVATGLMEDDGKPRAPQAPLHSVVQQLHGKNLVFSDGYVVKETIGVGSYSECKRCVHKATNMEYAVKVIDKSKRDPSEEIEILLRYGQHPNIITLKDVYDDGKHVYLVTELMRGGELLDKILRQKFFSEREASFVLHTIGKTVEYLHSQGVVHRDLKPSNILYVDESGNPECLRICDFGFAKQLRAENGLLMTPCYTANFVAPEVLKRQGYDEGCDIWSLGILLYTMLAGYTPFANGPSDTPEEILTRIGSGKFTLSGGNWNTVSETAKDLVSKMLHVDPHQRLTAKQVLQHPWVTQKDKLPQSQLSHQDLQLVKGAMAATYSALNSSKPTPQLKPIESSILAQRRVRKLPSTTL

T6 sequence (P00519 whole entry E255K): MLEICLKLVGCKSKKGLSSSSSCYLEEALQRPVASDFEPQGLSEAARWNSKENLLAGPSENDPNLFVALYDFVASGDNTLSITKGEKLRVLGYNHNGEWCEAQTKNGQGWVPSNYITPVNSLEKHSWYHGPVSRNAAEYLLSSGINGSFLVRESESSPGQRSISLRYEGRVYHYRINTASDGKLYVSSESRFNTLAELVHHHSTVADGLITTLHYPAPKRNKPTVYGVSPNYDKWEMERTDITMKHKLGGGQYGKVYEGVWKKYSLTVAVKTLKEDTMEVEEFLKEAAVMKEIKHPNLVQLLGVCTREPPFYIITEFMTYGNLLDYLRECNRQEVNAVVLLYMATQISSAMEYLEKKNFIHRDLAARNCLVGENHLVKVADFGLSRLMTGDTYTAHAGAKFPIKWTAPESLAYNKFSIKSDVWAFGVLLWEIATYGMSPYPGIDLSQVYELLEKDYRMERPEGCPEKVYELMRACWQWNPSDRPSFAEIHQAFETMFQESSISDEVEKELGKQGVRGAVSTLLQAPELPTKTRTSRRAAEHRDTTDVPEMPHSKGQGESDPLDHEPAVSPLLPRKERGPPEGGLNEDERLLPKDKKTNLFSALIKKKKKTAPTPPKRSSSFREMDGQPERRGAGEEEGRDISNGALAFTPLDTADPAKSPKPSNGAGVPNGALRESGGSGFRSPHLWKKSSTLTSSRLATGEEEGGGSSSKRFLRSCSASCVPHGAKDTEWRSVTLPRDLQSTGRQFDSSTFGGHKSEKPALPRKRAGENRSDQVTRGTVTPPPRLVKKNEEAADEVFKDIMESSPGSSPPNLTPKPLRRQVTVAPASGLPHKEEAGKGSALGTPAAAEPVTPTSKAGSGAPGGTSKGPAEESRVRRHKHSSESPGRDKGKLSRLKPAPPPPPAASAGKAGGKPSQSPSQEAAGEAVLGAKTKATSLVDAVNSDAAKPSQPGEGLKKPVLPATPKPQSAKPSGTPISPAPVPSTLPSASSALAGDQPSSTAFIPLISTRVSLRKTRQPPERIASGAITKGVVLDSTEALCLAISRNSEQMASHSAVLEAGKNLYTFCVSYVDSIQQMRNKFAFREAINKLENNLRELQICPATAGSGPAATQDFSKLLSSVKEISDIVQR
T4 sequence (Q14012 whole entry): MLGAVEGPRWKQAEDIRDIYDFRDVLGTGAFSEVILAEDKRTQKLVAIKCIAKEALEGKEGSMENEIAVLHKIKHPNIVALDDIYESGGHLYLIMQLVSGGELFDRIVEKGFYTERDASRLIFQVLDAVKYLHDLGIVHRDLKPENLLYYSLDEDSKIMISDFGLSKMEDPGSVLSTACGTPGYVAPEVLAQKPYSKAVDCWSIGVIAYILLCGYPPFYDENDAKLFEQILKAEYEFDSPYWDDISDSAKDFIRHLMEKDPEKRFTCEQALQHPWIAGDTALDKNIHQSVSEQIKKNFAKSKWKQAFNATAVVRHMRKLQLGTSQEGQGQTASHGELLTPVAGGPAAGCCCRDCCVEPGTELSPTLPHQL
T5 sequence (P07947 whole entry): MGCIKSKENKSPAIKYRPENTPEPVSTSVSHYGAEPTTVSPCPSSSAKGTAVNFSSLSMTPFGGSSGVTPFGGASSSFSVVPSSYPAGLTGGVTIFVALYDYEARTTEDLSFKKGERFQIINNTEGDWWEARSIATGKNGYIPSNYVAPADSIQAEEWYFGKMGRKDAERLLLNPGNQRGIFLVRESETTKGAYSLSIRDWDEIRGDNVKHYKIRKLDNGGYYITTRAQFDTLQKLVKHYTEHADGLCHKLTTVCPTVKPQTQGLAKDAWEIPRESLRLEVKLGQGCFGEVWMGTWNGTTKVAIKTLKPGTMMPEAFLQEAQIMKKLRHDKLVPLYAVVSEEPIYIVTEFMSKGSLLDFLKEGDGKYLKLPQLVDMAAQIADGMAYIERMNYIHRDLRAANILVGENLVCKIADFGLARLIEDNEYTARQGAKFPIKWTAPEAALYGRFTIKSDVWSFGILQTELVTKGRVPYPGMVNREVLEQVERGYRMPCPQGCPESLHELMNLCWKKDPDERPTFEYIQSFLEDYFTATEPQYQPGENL
T7 sequence (P22607 23-806 G697C): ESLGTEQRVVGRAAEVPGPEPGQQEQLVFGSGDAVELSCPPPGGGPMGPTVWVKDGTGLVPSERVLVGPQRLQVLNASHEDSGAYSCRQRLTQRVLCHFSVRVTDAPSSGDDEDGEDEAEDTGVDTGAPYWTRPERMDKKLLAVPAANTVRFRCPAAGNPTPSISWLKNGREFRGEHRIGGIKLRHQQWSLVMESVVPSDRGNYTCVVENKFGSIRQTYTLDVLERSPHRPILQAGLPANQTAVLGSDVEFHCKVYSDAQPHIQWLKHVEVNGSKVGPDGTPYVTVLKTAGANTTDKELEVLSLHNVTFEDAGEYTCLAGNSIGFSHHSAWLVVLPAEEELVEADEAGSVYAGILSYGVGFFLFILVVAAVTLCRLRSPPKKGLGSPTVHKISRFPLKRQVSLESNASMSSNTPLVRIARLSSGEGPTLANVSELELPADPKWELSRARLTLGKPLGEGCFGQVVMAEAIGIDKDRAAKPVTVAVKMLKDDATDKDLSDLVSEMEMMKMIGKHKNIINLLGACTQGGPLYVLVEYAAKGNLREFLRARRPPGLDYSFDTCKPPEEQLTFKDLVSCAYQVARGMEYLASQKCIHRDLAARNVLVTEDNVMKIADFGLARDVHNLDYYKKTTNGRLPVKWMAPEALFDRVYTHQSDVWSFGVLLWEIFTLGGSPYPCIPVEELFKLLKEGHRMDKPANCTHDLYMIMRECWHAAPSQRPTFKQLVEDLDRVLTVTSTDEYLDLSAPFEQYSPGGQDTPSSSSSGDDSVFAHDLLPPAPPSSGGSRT
T10 sequence (P23458 whole entry): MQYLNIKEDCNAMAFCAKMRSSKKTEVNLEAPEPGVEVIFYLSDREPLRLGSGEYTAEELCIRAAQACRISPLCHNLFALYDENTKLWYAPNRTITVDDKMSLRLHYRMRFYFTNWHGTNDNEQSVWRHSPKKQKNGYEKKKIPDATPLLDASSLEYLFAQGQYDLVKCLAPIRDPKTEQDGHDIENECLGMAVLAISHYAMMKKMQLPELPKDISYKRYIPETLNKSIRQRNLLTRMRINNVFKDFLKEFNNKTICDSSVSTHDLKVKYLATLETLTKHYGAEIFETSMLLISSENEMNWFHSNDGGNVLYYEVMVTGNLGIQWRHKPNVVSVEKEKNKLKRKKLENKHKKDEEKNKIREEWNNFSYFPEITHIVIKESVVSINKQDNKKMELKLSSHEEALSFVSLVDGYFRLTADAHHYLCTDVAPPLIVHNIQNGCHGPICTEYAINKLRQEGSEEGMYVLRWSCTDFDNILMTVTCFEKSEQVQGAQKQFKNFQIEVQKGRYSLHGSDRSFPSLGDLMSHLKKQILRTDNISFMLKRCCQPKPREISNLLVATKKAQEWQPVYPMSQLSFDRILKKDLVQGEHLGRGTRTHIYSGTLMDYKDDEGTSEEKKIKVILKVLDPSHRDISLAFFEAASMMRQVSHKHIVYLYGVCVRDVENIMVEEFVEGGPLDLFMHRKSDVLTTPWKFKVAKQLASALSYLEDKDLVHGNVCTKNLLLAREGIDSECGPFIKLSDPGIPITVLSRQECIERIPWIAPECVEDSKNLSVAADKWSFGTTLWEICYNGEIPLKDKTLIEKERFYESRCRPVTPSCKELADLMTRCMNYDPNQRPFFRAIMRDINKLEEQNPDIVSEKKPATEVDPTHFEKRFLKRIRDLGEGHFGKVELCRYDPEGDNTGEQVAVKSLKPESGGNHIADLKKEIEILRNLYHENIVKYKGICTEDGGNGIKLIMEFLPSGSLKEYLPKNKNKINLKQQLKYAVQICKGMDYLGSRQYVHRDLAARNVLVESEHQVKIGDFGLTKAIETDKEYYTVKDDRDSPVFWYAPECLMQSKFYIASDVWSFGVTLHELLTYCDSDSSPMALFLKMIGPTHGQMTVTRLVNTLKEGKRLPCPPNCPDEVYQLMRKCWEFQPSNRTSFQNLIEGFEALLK

| Compound | remaining binding at 1 µM (panel of 468 kinases [1]) [%] | remaining binding at 1 µM (panel of 468 kinases [2]) [%] | remaining binding at 1 µM (panel of 468 kinases [3]) [%] | remaining binding at 1 µM (panel of 468 kinases [4]) [%] | remaining binding at 1 µM (panel of 468 kinases [5]) [%] | remaining binding at 1 µM (panel of 468 kinases [6]) [%] | remaining binding at 1 µM (panel of 468 kinases [7]) [%] | remaining binding at 1 µM (panel of 468 kinases [8]) [%] | remaining binding at 1 µM (panel of 468 kinases [9]) [%] | remaining binding at 1 µM (panel of 468 kinases [10]; JAK1(JH1domain-catalytic)) [%] | remaining binding at 1 µM (panel of 468 kinases [10]; JAK1(JH2domain-pseudokinase)) [%] | remaining binding at 1 µM (panel of 468 kinases [11]; RSK1(Kin.Dom.1-N-terminal)) [%] | remaining binding at 1 µM (panel of 468 kinases [11]; RSK1(Kin.Dom.2-C-terminal)) [%] |
| --- | --- | --- | --- | --- | --- | --- | --- | --- | --- | --- | --- | --- | --- |
| CNc1nc(Nc2ccc(S(=O)(=O)N3CCC(N4CCOCC4)CC3)cc2OC)nc2[nH]cc(Cl)c12 [Compound 12, 5-chloro-N2-(2-methoxy-4-((4-morpholinopiperidin-1-yl)sulfonyl)phenyl)-N4-methyl-7H-pyrrolo[2,3-d]pyrimidine-2,4-diamine] | 100 | 91 | 100 | 100 | 100 | 92 | 100 | 96 | 100 | 100 | 73 | 100 | 100 |
| CNc1nc(Nc2ccc(C(=O)N3CCC(N4CCOCC4)CC3)c3c2OCO3)nc2[nH]cc(Cl)c12 [Compound 75, (7-((5-chloro-4-(methylamino)-7H-pyrrolo[2,3-d]pyrimidin-2-yl)amino)benzo[d][1,3]dioxol-4-yl)(4-morpholinopiperidin-1-yl)methanone] | 100 | 100 | 100 | 75 | 100 | 100 | 100 | 18 | 100 | 100 | 64 | 100 | 99 |
| CNc1nc(Nc2ccc(P3(=O)CCN(C4CCOCC4)CC3)cc2OC)nc2[nH]cc(Cl)c12 [Compound 77, 4-(4-((5-chloro-4-(methylamino)-7H-pyrrolo[2,3-d]pyrimidin-2-yl)amino)-3-methoxyphenyl)-1-(tetrahydro-2H-pyran-4-yl)-1,4-azaphosphinane 4-oxide] | 100 | 88 | 100 | 67 | 100 | 100 | 100 | 89 | 100 | 100 | 34 | 100 | 64 |
